This is an account of results in BindingDB's records for doi:10.1021/jm00032a001 (Warner-Lambert, 1994).

Each structure is given as a SMILES string.

The nature of experiment [1]: Tested for inhibition of E-selectin expression by ELISA at the dose of 30 uM.
Experiment [2] can be described thus: Tested for inhibition of ICAM expression by ELISA at the dose of 30 uM. Background: An ELISA detects its analyte on a solid surface through an enzyme-linked reagent.
The nature of experiment [3]: Tested for inhibition of E-selection expression by ELISA at the dose of 30 uM.
A short description of experiment [4]: Tested for inhibition of ICAM expression by ELISA at the dose of 30 uM. The source holds these as a separate data set.

A word on the IC50: it is the concentration at which inhibition is half-maximal. Low values mean greater potency, high ones weaker potency. Take `CNC(=O)c1sc2ccc(OC)cc2c1OC(C)C` [3-Isopropoxy-5-methoxy-benzo[b]thiophene-2-carboxylic acid methylamide]: the IC50 amounted to 1.4 µM in experiment [1] and 6.6 µM in experiment [2].
In the case of `CC(C)Oc1c(C(N)=O)sc2ccc(O)cc12` [5-Hydroxy-3-isopropoxy-benzo[b]thiophene-2-carboxylic acid amide], the half-maximal inhibitory concentration (IC50) stood at 3.3 µM in experiment [1] and 3.5 µM in experiment [2].
As to `COc1ccc2c(c1)c(OC(C)C)c(C(N)=O)[s+]2[O-]` (stereo unspecified) [3-Isopropoxy-5-methoxy-1-oxo-benzo[b]thiophene-2-carboxylic acid amide], the concentration for half-maximal inhibition (IC50) in experiment [3] worked out at 6.6 µM; in experiment [4], 4 µM.
